Laboratory results as given in paper PMC3479967 (Evidence-based Complementary and Alternative Medicine : eCAM, 2012).

Experiments:
[1] = Calculation of possible maximum concentrations in gut lumen; parameters: species or system human; conditions: calculated, after a single oral administration of Epimedium pubescens decoction
Excerpt: The reported V L was 1.65 L/70 kg. […] Here we arbitrarily assumed the ratio in rat equaled to that in human blood, and the values of their oral bioavailability were consistent.

UGT2B7 = molecular target: T1, UGT2B7 (Homo sapiens, UniProt P16662); assay: Inhibition of recombinant UGT2B7 activity (4-MU glucuronidation)
T1 sequence (P16662 24-529): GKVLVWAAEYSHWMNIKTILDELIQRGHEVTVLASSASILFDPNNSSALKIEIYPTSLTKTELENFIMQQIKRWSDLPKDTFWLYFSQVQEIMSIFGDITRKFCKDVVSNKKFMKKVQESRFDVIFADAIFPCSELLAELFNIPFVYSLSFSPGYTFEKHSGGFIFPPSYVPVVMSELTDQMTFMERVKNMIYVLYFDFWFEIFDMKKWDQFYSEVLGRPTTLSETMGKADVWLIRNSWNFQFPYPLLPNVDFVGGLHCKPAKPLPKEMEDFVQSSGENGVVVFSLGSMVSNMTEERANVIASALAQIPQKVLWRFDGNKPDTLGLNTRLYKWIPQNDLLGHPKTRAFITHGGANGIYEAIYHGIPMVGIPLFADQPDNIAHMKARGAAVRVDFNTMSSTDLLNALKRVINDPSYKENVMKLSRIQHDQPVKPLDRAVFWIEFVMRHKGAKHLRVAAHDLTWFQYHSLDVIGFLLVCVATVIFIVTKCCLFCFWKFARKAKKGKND
Description: (§1) A panel of recombinant human UGT supersomes (UGT1A1, UGT1A3, UGT1A4, UGT1A6, UGT1A7, UGT1A8, UGT1A9, UGT1A10, UGT2B4, UGT2B7, UGT2B15, and UGT2B17) expressed in baculovirus-infected insect cells were purchased from BD Gentest Corp. (Woburn, MA, USA).
(§2) 4-MU, a nonselective substrate of UGTs, was used as probe substrate for all UGTs except UGT1A4. Incubations with each individual enzyme were conducted using conditions previously described. There was a 5 min preincubation step at 37°C before the reaction was started by addition of UDPGA. The incubation mixtures were then centrifuged at 20,500 ×g for 15 min to obtain the supernatant. Aliquots (20 μL) were then analyzed by HPLC. The HPLC system (SHIMADZU, Kyoto, Japan) consisted of an SCL-10A system controller, two LC-10AT pumps, a SIL-10A auto injector, and a SPD-10AVP UV detector. Chromatographic separation was achieved using a Kromasil ODS column (4.6 × 150 mm I.D., 5 μm particle size) at a flow rate of 1 mL/min and UV detection at 316 nm. The mobile phase consisted of 10 mM KH2PO4, pH 2.7 (A) and acetonitrile (B). The following gradient was applied at a flow rate of 1 mL/min: 0–4 min 80% A and 20% B, 4.1–8 min 50% A and 50% B, 8.1–12 min, 30% A and 70% B. All experiments were performed in two independent experiments in duplicate.
(§3) A typical incubation mixture contained recombinant human UGTs, 5 mM MgCl2, 5 mM UDPGA, 50 μg/mg protein alamethicin, 50 mM Tris-HCl buffer (pH 7.4), and various probe substrates of UGTs in the absence or presence of different concentrations of inhibitors. […] The final concentration of DMSO in the incubation system was 1% (v/v). […] Known UGT inhibitors were used as positive controls: diclofenac for UGT1A1, UGT1A6, UGT1A7, and UGT1A9; androsterone for UGT1A3, UGT2B7, and UGT2B15, phenylbutazone for UGT1A8 and UGT1A10, and hecogenin for UGT1A4, respectively. There is no positive control reported available for UGT2B4 and UGT2B17. The negative controls are the incubation without UDPGA. […] The final concentration of DMSO in the incubation system was 1% (v/v). […] There was a 5 min preincubation step at 37°C before the reaction was started by the addition of UDPGA. Incubation times were 120 min for UGT1A1, UGT1A10, UGT2B4, UGT2B15, and UGT2B17, 75 min for UGT1A3, and 30 min for UGT1A4, UGT1A6, UGT1A7, UGT1A8, and UGT1A9. The reactions were quenched by adding 100 μL acetonitrile and internal standard. The incubation mixtures were then centrifuged at 20,500 ×g for 15 min to obtain the supernatant. An aliquot of the supernatant was used for HPLC analysis as described above. All experiments were performed in two independent experiments in duplicate.
Inhibition data from experiments were graphically represented by Dixon plots. K i values were calculated by nonlinear regression using the equations for competitive inhibition (1), noncompetitive inhibition (2), or mixed inhibition (3), [22] […] The type of inhibition was determined from the enzyme inhibition models. Goodness of fit to kinetic and inhibition models was assessed from the F statistic, r ^2 values, parameter standard error estimates, and 95% confidence intervals. […]

UGT1A7 = molecular target: T2, UGT1A7 (Homo sapiens, UniProt Q9HAW7); assay: Inhibition of recombinant UGT1A7 activity (4-MU glucuronidation)
T2 sequence (Q9HAW7 26-530): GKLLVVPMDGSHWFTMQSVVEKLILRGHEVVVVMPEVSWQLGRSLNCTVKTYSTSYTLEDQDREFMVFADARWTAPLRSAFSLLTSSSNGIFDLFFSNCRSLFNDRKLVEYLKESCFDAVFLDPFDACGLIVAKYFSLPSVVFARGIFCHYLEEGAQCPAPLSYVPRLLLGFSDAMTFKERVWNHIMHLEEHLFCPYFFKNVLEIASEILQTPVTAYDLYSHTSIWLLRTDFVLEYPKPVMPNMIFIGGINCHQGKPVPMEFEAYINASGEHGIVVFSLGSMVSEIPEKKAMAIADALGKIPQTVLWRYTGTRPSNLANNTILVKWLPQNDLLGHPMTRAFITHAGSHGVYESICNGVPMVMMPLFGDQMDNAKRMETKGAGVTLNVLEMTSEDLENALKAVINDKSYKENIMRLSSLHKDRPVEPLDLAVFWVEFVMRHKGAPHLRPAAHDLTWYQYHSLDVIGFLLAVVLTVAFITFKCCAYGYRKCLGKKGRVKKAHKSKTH
Description: as §1, §2, §3
Inhibition data from experiments were graphically represented by Dixon plots. K i values were calculated by nonlinear regression using the equations for competitive inhibition (1), noncompetitive inhibition (2), or mixed inhibition (3), [22] (1) v =VmaxS/Km(1+(I/Ki))+S, (2) v =VmaxS/(Km+S)(1+(I/Ki)), (3) v =VmaxS/Km (1+(I/Ki))+S(1+(I/αKi)), where v is the velocity of the reaction; S and I are the substrate and inhibitor concentrations, respectively; K i is the inhibition constant describing the affinity of the inhibitor for the enzyme; K m is the substrate concentration at half of the maximum velocity (V max) of the reaction; α reflects the effect of inhibitor on the affinity of the enzyme for its substrate. The type of inhibition was determined from the enzyme inhibition models. Goodness of fit to kinetic and inhibition models was assessed from the F statistic, r ^2 values, parameter standard error estimates, and 95% confidence intervals. Kinetic constants are reported as the mean value ± standard error of the parameter estimate.

| Possible maximum concentration in human gut lumen [1] | IC50 (UGT2B7) [µM] | IC50 (UGT1A7) [µM] | Ki (UGT1A7) [µM] | Inhibition type against UGT1A7 (UGT1A7; recombinant UGT1A7) | α of mixed inhibition against UGT1A7 (UGT1A7; recombinant UGT1A7, mixed inhibition model) | Compound |
| --- | --- | --- | --- | --- | --- | --- |
| ~0.2 µM | > 100 | > 100 | – | – | – | COc1ccc(-c2oc3c(CC=C(C)C)c(O[C@@H]4O[C@H](CO)[C@@H](O)[C@H](O)[C@H]4O)cc(O)c3c(=O)c2O)cc1 [Icariside I] |
| ~3.8 µM | > 100 | 0.3 | 0.7 ± 0.2 | mixed | 2.7 | COc1ccc(-c2oc3c(CC=C(C)C)c(O)cc(O)c3c(=O)c2O)cc1 [Icaritin] |

| Compound | Possible maximum concentration in human gut lumen [1] | IC50 (UGT2B7) [µM] | IC50 (UGT1A7) [µM] | Ki (UGT1A7) [µM] | Inhibition type against UGT1A7 (UGT1A7; recombinant UGT1A7) | α of mixed inhibition against UGT1A7 (UGT1A7; recombinant UGT1A7, mixed inhibition model) |
| --- | --- | --- | --- | --- | --- | --- |
| COc1ccc(-c2oc3c(CC=C(C)C)c(O[C@@H]4O[C@H](CO)[C@@H](O)[C@H](O)[C@H]4O)cc(O)c3c(=O)c2O[C@@H]2O[C@@H](C)[C@H](O)[C@@H](O)[C@H]2O)cc1 [Icariin] | about 9.9 μM | > 100 | > 100 | – | – | – |
